Target: T1, Ubiquitin carboxyl-terminal hydrolase 19 (Homo sapiens, UniProt O94966)
T1 sequence (O94966 whole entry): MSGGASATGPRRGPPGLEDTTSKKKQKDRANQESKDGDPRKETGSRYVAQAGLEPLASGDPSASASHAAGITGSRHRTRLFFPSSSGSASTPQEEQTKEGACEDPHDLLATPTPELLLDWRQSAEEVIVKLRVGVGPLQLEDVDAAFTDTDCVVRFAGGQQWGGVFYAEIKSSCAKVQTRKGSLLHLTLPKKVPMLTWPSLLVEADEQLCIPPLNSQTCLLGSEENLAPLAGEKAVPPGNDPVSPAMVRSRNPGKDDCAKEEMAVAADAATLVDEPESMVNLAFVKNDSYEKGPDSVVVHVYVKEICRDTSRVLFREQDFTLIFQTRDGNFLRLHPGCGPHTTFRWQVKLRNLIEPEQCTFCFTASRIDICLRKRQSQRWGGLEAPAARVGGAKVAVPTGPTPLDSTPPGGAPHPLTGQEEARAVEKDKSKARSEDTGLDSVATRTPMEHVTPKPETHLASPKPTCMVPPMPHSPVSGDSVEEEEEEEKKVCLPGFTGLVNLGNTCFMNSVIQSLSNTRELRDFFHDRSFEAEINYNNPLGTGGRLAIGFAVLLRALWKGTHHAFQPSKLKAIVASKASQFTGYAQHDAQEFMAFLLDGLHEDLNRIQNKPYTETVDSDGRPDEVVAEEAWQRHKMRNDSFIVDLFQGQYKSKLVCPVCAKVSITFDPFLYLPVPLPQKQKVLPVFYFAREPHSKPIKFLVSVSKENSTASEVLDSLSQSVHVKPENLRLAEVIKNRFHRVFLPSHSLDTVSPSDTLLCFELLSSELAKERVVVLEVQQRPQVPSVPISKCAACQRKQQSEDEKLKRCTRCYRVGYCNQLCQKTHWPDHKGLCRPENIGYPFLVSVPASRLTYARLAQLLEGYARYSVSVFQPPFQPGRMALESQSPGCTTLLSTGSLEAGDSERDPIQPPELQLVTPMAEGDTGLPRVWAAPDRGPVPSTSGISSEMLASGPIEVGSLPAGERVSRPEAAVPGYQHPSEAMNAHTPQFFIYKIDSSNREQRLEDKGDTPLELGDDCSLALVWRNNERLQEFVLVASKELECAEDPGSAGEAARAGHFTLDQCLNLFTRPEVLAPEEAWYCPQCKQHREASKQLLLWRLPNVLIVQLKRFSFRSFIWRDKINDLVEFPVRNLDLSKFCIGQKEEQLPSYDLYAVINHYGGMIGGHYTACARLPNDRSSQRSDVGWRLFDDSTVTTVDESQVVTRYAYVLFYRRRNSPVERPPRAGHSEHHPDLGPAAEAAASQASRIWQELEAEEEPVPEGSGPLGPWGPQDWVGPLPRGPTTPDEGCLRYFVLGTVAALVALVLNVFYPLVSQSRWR
Experiment: Fluorescence Polarization (FP) Homogeneous Assay
Method: Unless otherwise stated, all other reagents were purchased from Sigma. Enzymatic reactions were conducted in black flat bottom polystyrene 384-well plates (Nunc) and 30 μL total volume. […] Inhibitors were stored as 10 mM DMSO stocks in an inert environment (low humidity, dark, low oxygen, room temperature) using the Storage Pod System and serial dilutions were prepared in buffer just prior to the assay (from 200 μM to 2 pM, 8-18 data point curve). Following incubation at rt for 30 min, the enzymatic reactions were initiated by dispensing the Ub substrate (500 nM, 10 μL). FP was measured every 15 min over a period of 90 min (within the linear range of the assay) using a Synergy 4 plate reader (BioTek) exciting at 530 nm and measuring the amount of parallel and perpendicular light at 575 nm. The FP signal was subsequently normalized to the no compound control.

IC50 [nM]	SMILES
< 500	O=C(N1CC[C@@](O)(Cn2cnc(-c3ccccc3)cc2=O)C2(CCCC2)C1)N1CC[S+]([O-])CC1c1ccccc1 (some centres not stated) [US11807646, Example 337]
< 500	O=C(N1CCC(O)(Cn2cnc(-c3ccccc3)cc2=O)C2(CCOCC2)C1)N1CCNC[C@H]1c1ccccc1 (some centres not stated) [US11807646, Example 321]
< 500	O=C(N1CC[C@@](O)(Cn2cc(F)c(-c3ccccc3)cc2=O)C2(CCCC2)C1)N1CCNC[C@H]1c1ccccc1 [US11807646, Example 331]

Second part, the compound before the results:

SMILES	IC50 [nM]
O=C(N1CC[C@@](O)(Cn2ncc(-c3ccccc3)cc2=O)C2(CCCC2)C1)N1CCOC[C@H]1c1ccccc1 [US11807646, Example 280]	< 500
O=C1CN(c2ccccc2)CCN1CC1(O)CCN(C(=O)NCc2ccccc2)CC12CCCC2 (configuration not stated) [US11807646, Example 109]	< 500
CS(C)(=O)=Nc1cn(CC2(O)CCN(C(=O)N3CCNC[C@H]3c3ccccc3)CC23CCCC3)c(=O)cc1-c1ccccc1 (some centres not stated) [US11807646, Example 191]	< 500
CN(C)c1cc(=O)n(C[C@]2(O)CCN(C(=O)N3CCNC[C@H]3c3ccccc3)CC23CCCC3)cn1 [US11807646, Example 318]	< 500

From BindingDB's records for patent US11807646 (Almac Discovery, 2023)
